What is called pIC50 is the negative decadic logarithm of the IC50, by convention in mol/L.

pIC50: −log10 of the molar value. Some results are limits rather than exact numbers.

For twelve compounds, activity and IC50 results are on record in patent publication US20230322789A1, “PYRAZOLOPYRIDAZINONE COMPOUND, AND PHARMACEUTICAL COMPOSITION AND USE THEREOF” (BroadenBio Co., Ltd., priority 2020, published 2023).

In one assay the test system is Human Jurkat-E6-1 cells. Put plainly: Measurement of IL-2 secretion of Jurkat cells by ELISA. Type of assay: cell-based. Particulars: Homo sapiens, Jurkat E6.1, anti-CD3/anti-CD28 stimulation 24 hours, read-out: Percentage of the amount of IL-2 secreted from compound treated/DMSO-treated cells; for activity at 3 µM: test compound 3.0 μM; for activity at 1 µM: test compound 1.0 μM. As to the method: 2. Measurement of IL-2 Secretion of Jurkat Cells by ELISA
Human Jurkat-E6-1 cells were incubated with various concentrations of test compounds for 30 minutes in a humidified incubator at 37° C. and […]. Cells were transferred to cell culture plates pre-coated with anti-human CD3 antibody, then soluble anti-human CD28 antibody was added, and cells were stimulated for 24 hours at 37° C. and 5% CO2 in a humidified incubator. The cell culture medium was collected by centrifugation, and was then transferred to a 96-well transparent microtiter plate (Thermo) pre-coated with anti-human IL-2 antibody, incubated at room temperature for 2 hours, and gently shaken, washed with washing buffer for 4 times, and then followed the ELISA MAX Deluxe Set Human IL-2 (BioLegend) kit procedure, used a microplate reader (Molecular Device, i3X) to read the GD value. The best standard curve was selected by the microplate reader application software, and the corresponding concentration was calculated according to the GD value of the standard. Results are expressed as a percentage of the amount of IL-2 secreted from compound-treated/DMSO-treated cells.

A further assay has as its target HPK1 (Homo sapiens (Human), UniProt Q92918). As to the kind of experiment: HPK1 kinase activity inhibition test (ADP-Glo, luminescence). It counts as biochemical. Particulars: HPK1 5 nM, ATP 2 μM, read-out: IC50, inhibitory effects of compounds on HPK1 kinase activity. The essentials: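 HPK1 autophosphorylation was run without added substrate. Kinase and compound were preincubated 10 min at 25° C., then ATP was added for 60 min at 25° C. ADP formed was detected by ADP-Glo luminescence, and IC50 was taken from a four-parameter nonlinear fit.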
A general note: In ADP-Glo the light output rises with the ADP produced.

HPK1, sequence (Q92918 whole entry): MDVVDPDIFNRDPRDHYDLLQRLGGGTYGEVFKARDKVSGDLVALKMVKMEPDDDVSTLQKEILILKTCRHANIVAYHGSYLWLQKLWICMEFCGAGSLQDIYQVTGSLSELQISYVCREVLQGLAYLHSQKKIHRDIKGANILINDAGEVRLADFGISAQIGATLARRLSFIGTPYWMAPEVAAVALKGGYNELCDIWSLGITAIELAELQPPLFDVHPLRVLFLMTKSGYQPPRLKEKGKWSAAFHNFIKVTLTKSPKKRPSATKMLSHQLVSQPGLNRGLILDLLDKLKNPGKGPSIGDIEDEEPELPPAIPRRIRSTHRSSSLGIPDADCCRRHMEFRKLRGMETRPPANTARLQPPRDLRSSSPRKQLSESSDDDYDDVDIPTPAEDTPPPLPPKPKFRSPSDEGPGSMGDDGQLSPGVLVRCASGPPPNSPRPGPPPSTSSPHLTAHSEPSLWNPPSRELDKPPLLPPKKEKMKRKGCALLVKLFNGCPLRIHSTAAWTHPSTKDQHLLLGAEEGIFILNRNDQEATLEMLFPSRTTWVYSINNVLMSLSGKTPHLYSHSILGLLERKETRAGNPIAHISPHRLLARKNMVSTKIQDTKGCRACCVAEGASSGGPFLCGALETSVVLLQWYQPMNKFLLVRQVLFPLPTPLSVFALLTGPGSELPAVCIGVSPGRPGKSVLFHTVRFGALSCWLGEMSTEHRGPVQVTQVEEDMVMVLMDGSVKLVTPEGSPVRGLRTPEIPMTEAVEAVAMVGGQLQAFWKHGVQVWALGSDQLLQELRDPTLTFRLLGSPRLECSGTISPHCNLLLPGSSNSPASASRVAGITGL

Regarding `CCc1cccc(F)c1-n1nc2c(-c3cccc(N4CCN(C)CC4)c3)n[nH]c2cc1=O` [Compound 200, 5-(2-ethyl-6-fluorophenyl)-3-(3-(4-methylpiperazin-1-yl)phenyl)-1H-pyrazolo[4,3-c]pyridazin-6(5H)-one], in the assay with Human Jurkat-E6-1 cells, the activity at 3 µM came out at 286%. For the same compound, the negative logarithm of the IC50 (pIC50) on HPK1 is no less than 7.30.

On to `Cc1cccc(F)c1-n1nc2c(-c3ccc(N4CCN(C5CCOC5)CC4)nc3)n[nH]c2cc1=O` (stereo not drawn) [Compound 106, 5-(2-fluoro-6-methylphenyl)-3-(6-(4-(tetrahydrofuran-3-yl)piperazin-1-yl)pyrid-3-yl)-1H-pyrazolo[4,3-c]pyridazin-6(5H)-one], for which the activity at 3 µM in the assay with Human Jurkat-E6-1 cells worked out at 833%. For the same compound, on HPK1, the pIC50 was no less than 7.30.

Consider `Cc1cccc(F)c1-n1nc2c(-c3ccc(N4CCC(N5CCOCC5)CC4)cc3)n[nH]c2cc1=O` [Compound 142, 5-(2-fluoro-6-methylphenyl)-3-(4-(4-morpholinopiperidin-1-yl)phenyl)-1H-pyrazolo[4,3-c]pyridazin-6(5H)-one], for which the activity at 3 µM in the assay on Human Jurkat-E6-1 cells came out at 708%. Besides, the pIC50 on HPK1 is no less than 7.30.

As for `Cc1cc(-c2n[nH]c3cc(=O)n(-c4c(C)cccc4F)nc23)cc(C)c1N1CCN(C)CC1` [Compound 13], the activity at 3 µM with Human Jurkat-E6-1 cells was 315%. Also, at HPK1, the pIC50 is 6.30 to 7.30.

In the case of `CC(C)c1cccc(F)c1-n1nc2c(-c3ccc(N4CCN(C)CC4)cc3)n[nH]c2cc1=O` [Compound 29, 5-(2-fluoro-6-isopropylphenyl)-3-(4-(4-methylpiperazin-1-yl)phenyl)-1H-pyrazolo[4,3-c]pyridazin-6(5H)-one], the activity at 1 µM in the assay with Human Jurkat-E6-1 cells is 291%. At HPK1, the pIC50 was no less than 7.30.

On to `CN1CCN(c2ccc(-c3n[nH]c4cc(=O)n(-c5c(F)cccc5C5CC5)nc34)cc2)CC1` [Compound 34, 5-(2-fluoro-6-cyclopropylphenyl)-3-(4-(4-methylpiperazin-1-yl)phenyl)-1H-pyrazolo[4,3-c]pyridazin-6(5H)-one], for which, in the assay with Human Jurkat-E6-1 cells, the activity at 1 µM came out at 284%. Besides, the pIC50 on HPK1 is no less than 7.30.

In the case of `Cc1cccc(F)c1-n1nc2c(-c3ccc(N4CCN(C)C(CO)C4)cc3)n[nH]c2cc1=O` (stereo not drawn) [Compound 120, 5-(2-fluoro-6-methylphenyl)-3-(4-(3-(hydroxymethyl)-4-methylpiperazin-1-yl)phenyl)-1H-pyrazolo[4,3-c]pyridazin-6(5H)-one], the activity at 3 µM in the assay on Human Jurkat-E6-1 cells came out at 482%. Besides, the pIC50 at HPK1 was no less than 7.30.

In the case of `COc1cccc(F)c1-n1nc2c(-c3ccc4c(c3)CN(C)CC4)n[nH]c2cc1=O` [Compound 73, 5-(2-fluoro-6-methoxyphenyl)-3-(2-methyl-1,2,3,4-tetrahydroisoquinolin-7-yl)-1H-pyrazolo[4,3-c]pyridazin-6(5H)-one], the activity at 3 µM in the assay with Human Jurkat-E6-1 cells came to 926%. Further, on HPK1, the pIC50 was no less than 7.30.

With `COc1cccc(F)c1-n1nc2c(-c3ccc(N4CCOCC4)cc3)n[nH]c2c(C)c1=O` [Compound 155, 5-(2-fluoro-6-methoxyphenyl)-7-methyl-3-(4-morpholinophenyl)-1H-pyrazolo[4,3-c]pyridazin-6(5H)-one], the activity at 3 µM with Human Jurkat-E6-1 cells was determined as 435%. In addition, the pIC50 on HPK1 was 6.30 to 7.30.

Consider `Cc1cccc(F)c1-n1nc2c(-c3ccc(N4CCN(C5COC5)CC4)nc3)n[nH]c2cc1=O` [Compound 103], for which the activity at 3 µM in the assay with Human Jurkat-E6-1 cells came to 716%. Also, on HPK1, the pIC50 is no less than 7.30.

For the compound `COc1cc(N2CCN(C)CC2)ccc1-c1n[nH]c2cc(=O)n(-c3c(C)cccc3F)nc12` [Compound 16, 5-(2-fluoro-6-methylphenyl)-3-(2-methoxy-4-(4-methylpiperazin-1-yl)phenyl)-1H-pyrazolo[4,3-c]pyridazin-6(5H)-one], in the assay with Human Jurkat-E6-1 cells, the activity at 1 µM was 156%. For the same compound, the pIC50 at HPK1 was 5.70 to 6.30.

Consider `COc1cccc(F)c1-n1nc2c(-c3ccc(N4CCN(C)CC4)cc3)n[nH]c2cc1=O` [Compound 9, 5-(2-fluoro-6-methoxyphenyl)-3-(4-(4-methylpiperazin-1-yl)phenyl)-1H-pyrazolo[4,3-c]pyridazin-6(5H)-one], for which the activity at 3 µM with Human Jurkat-E6-1 cells came to 188%. Moreover, the pIC50 on HPK1 is no less than 7.30.
